These results are taken from US7622594B2, “Glucocortioid mimetics, methods of making them, pharmaceutical compositions, and uses thereof” (Boehringer Ingelheim Pharmaceuticals, Inc., priority 2005, dated 2009).

The experiment has as its system IL-6 production in human foreskin fibroblast cells. Briefly: Inhibition of IL-6 production in fibroblasts (cell assay for transrepression). The format is cell-based. The note with it: IL-1 stimulated human foreskin fibroblasts. As for the experimental part:
Human foreskin fibroblast cells produce IL-6 in response to stimulation by proinflammatory cytokine IL-1.
Human foreskin fibroblast cells (ATCC Cat. No. CRL-2429) are plated on 96 well plates at 5,000 cells per well the day before use, in Iscove's Modified Dulbecco's Media (GibcoBRL Life Technologies Cat. No. 12440-053) supplemented with 10% charcoal filtered FBS (Clonetech Cat. No. SH30068) and Gentamycin (GibcoBRL Life Technologies Cat. No. 15710-064). On the next day, media in the wells is replaced with fresh media. Cells are treated with IL-1 (rhIL-1α, R&D Systems Cat. No. 200-LA) to a final concentration of 1 ng/mL, and with test compounds to final concentrations of 10^−5 M to 10^−8 M, in a total volume of 200 μL per well. Samples are done in duplicates. […] Positive control wells receive IL-1 only and represent maximum (or 100%) amount of IL-6 production. Plates are incubated at 37° C. overnight (15 to 18 hours), and supernatants are harvested at the end of incubation. IL-6 levels in the supernatants are determined by the ELISA kits for IL-6 (MedSystems Diagnostics GmbH, Vienna, Austria, Cat. No. BMS213TEN) according to manufacture's instructions. The extent of inhibition of IL-6 by test compounds is expressed in percentage relative to positive controls. IC50 values of test compounds are derived by non-linear curve fitting.

As for `OC(c1ccc(F)c(Cl)c1)(c1ccc2c(cnn2-c2ccccc2)c1)C(F)(F)F` (stereo not shown) [1-(3-Chloro-4-fluorophenyl)-2,2,2-trifluoro-1-(1-phenyl-1H-indazol-5-yl)ethanol], the “agonistic activity by inhibiting IL-6 production in Fibroblasts” value is recorded as “agonistic activity”.
For `OC(c1ccc(F)c(Cl)c1)(c1ccc2c(cnn2-c2ccc(F)cc2)c1)C(F)(F)F` (stereo not shown) [1-(3-Chloro-4-fluorophenyl)-2,2,2-trifluoro-1-[1-(4-fluorophenyl)-1H-indazol-5-yl]ethanol], the “agonistic activity by inhibiting IL-6 production in Fibroblasts” value is “agonistic activity”.
As for `OC(c1ccc2c(cnn2-c2ccccc2)c1)(c1csc2ccccc12)C(F)(F)F` (stereo not shown) [1-Benzo[b]thiophen-3-yl-2,2,2-trifluoro-1-(1-phenyl-1H-indazol-5-yl)ethanol], the entry is “agonistic activity”; as for `OC(c1ccc2c(cnn2-c2ccc(F)cc2)c1)(c1csc2ccccc12)C(F)(F)F` (stereo not shown) [1-Benzo[b]thiophen-3-yl-2,2,2-trifluoro-1-[1-(4-fluorophenyl)-1H-indazol-5-yl]ethanol], “agonistic activity”.
Next, `OC(c1ccc2c(cnn2-c2ccccc2)c1)(c1ccnc2ccccc12)C(F)(F)F` (stereo not shown) [2,2,2-Trifluoro-1-(1-phenyl-1H-indazol-5-yl)-1-quinolin-4-ylethanol]: “agonistic activity”; `OC(c1ccc2c(cnn2-c2ccccc2)c1)(c1ccc(F)c2ccccc12)C(F)(F)F` (stereo not shown) [2,2,2-Trifluoro-1-(4-fluoronaphthalen-1-yl)-1-(1-phenyl-1H-indazol-5-yl)ethanol]: “agonistic activity”.
Take `OC(c1ccc2c(cnn2-c2ccc(F)cc2)c1)(c1ccc(F)c2ccccc12)C(F)(F)F` (stereo not shown) [2,2,2-Trifluoro-1-(4-fluoronaphthalen-1-yl)-1-[1-(4-fluorophenyl)-1H-indazol-5-yl]ethanol]: the “agonistic activity by inhibiting IL-6 production in Fibroblasts” value is recorded as “agonistic activity”.
`Cc1ccc(C(O)(c2ccc3c(cnn3-c3ccc(F)cc3)c2)C(F)(F)F)c2ccccc12` (stereo not shown) [2,2,2-Trifluoro-1-[1-(4-fluorophenyl)-1H-indazol-5-yl]-1-(4-methylnaphthalen-1-yl)ethanol]: the “agonistic activity by inhibiting IL-6 production in Fibroblasts” value was “agonistic activity”.
Next, `OC(c1ccc2c(cnn2-c2ccc(F)cc2)c1)(c1cccc2ccccc12)C(F)(F)F` (stereo not shown) [2,2,2-Trifluoro-1-[1-(4-fluorophenyl)-1H-indazol-5-yl]-1-naphthalen-1-ylethanol]: “agonistic activity”.
For the molecule `OC(c1ccc2c(cnn2-c2ccccc2)c1)(c1cccc2ccccc12)C(F)(F)F` (stereo not shown) [2,2,2-Trifluoro-1-naphthalen-1-yl-1-(1-phenyl-1H-indazol-5-yl)ethanol], the “agonistic activity by inhibiting IL-6 production in Fibroblasts” value was “agonistic activity”.
